Laboratory results reported in patent US9096538B2, “Pharmaceutical comprising PPAR agonist” (Senju Pharmaceutical Co., Ltd., priority 2005, dated 2015).

Assays:
[1] = system: normal human corneal epithelial cell; assay: Test Example 6: increase in cell number, normal human corneal epithelial cell, 48 hours (Cell Counting Kit-8); assay type: cell-based; conditions: 10^−8 M, no addition group = 100%, average ± standard deviation, N = 4 to 5
Method: (§1) A normal human corneal epithelial cell (KURABO) was used.
As the test substance, the following compounds were used. • PPARδ Agonist: GW-501516 (Alexis), GW-0742 (Sigma-Aldrich)
Only basal medium (no addition group) • [2] Basal medium+GW-501516 (final concentration: 0.01 μM) • [3] Basal medium+GW-0742 (final concentration: 0.01 μM)

[2] = system: rabbit corneal epithelial cell; assay: Test Example 1: increase in cell number, cultured rabbit corneal epithelial cell (Cell Counting Kit-8); assay type: cell-based; conditions: 48 hours, no addition group = 100%, average ± standard deviation, N = 5
Method: A male rabbit (Japanese white, […] LABES Co., Ltd.) was used. The experimental animal was used according to the International Guiding Principles for Biomedical Research Involving Animals.
A corneal epithelial cell was prepared from rabbit eyeballs. A cornea was excised from isolated eyeballs, and stored in Dulbecco's phosphate buffered saline (D-PBS; Invitrogen), and this was transferred to a clean bench. The following cell preparation procedures were all performed sterilely.
The isolated corneal segment was washed with D-PBS with 1% penicillin-streptomycin (Invitrogen) added thereto three times, and was transferred to a minimum essential medium (MEM; Invitrogen). A corneal endothelial cell and a Descemet's membrane of the corneal segment immersed in MEM were peeled with a knife (Alcon) for ocular operation, and the corneal segment (corneal stroma and corneal epithelium) after peeling was transferred to MEM to which dispase II (Roche Diagnostics) had been added to 2.4 U/mL. This was incubated at 37° C. for 1 hour and, thereafter, the dispase II-treated corneal segment was transferred to MEM. The corneal epithelium of the corneal segment immersed in MEM was peeled with the knife for ocular operation, and the corneal segment residue (corneal stroma) was removed from MEM. The peeled corneal epithelial cell and the MEM containing same were recovered in a 50 mL centrifuge tube, subjected to centrifugation at 1,500 rpm for 5 minutes at room temperature. The supernatant was discarded to give a corneal epithelial cell layer. To the corneal epithelial cell layer was added 1 mL of trypsin-EDTA (Invitrogen) and, after thorough mixing, the cells were incubated at 37° C. for 5 minutes to dissociate adhesion between the cells. To this was added 9 mL of MEM containing 10% fetal bovine serum (FBS; Invitrogen) to stop the enzymatic reaction, and this was subjected again to centrifugation at room temperature and 1,500 rpm for 5 minutes to obtain the corneal epithelial cell layer. To the resulting corneal epithelial cell layer was added […] of a serum-free liquid medium for proliferating a normal rabbit corneal epithelial cell (RCGM2; Kurabo Industries LTD.) to suspend the cell, and this was seeded into a culture dish (IWAKI) for culturing a cell having a diameter of 10 cm, to which 9 mL of RCGM2 had been added. […] The culture medium was exchanged with a fresh culture medium every 48 hours until the test day.
As the test substance, the following compounds were used. • PPARα agonist: WY-14643 (Calbiochem) and fenofibrate (Sigma-Aldrich) • PPARδ agonist: L-165041 (Sigma-Aldrich)
(§2) For studying the effect of promoting cell proliferation by each test substance, a culture medium prepared by removing a mouse-derived epithelial growth factor (mEGF) attached to RCGM2, from RCGM2, was used as a basal medium, while as a positive control for confirming the effect of promoting cell proliferation, a medium with an mEGF added thereto (basal medium+10 ng/mL mEGF) was used according to instructions of an RCGM2 preparation protocol.
As a culture dish for a test of cell proliferation promotion, a 96-well culture dish for tissue culture (Corning) was used. On the day before the test, each 50 μL of 0.01% type I collagen (Nitta Gelatin Inc.) was dispensed into each well of the culture dish, and coating was performed at 4° C. until immediately before the test. On the test day, after a type I collagen solution was removed, the bottom of the culture dish was washed three times using D-PBS, and this was used in the test as a collagen-treated culture dish.
In the test, a rabbit corneal epithelial cell which had been cultured to subconfluent in a culture dish having a diameter of 10 cm was used. After the culture medium was removed, the bottom of the culture dish was washed two times using D-PBS, to this was added 1 mL of trypsin-EDTA, this was incubated at 37° C. for 5 minutes and thereby, the cell was peeled from the bottom of the culture dish. […]

[3] = system: monkey meibomian gland epithelial cell; assay: Test Example 3: increase in cell number, cultured monkey meibomian gland epithelial cell (Cell Counting Kit-8); assay type: cell-based, cynomolgus monkey; conditions: 48 + 48 hours; for Cell proliferation (%): no addition group = 100%, average ± standard deviation, N = 5
Method: A female cynomolgus monkey (Environmental Biological Life Science Research Center) was used. The experimental animal was used according to the International Guiding Principles for Biomedical Research Involving Animals.
A meibomian gland epithelial cell was prepared from a monkey eyelid. An eyelid was isolated, and stored in Dulbecco's phosphate buffered saline (D-PBS; Invitrogen), and this was transferred to a clean bench. The following cell preparation procedures were all performed sterilely.
After the isolated eyelid was immersed in 80% ethanol for 30 seconds, the eyelid was washed with D-PBS with 1% penicillin-streptomycin (Invitrogen) added thereto three times, and transferred to a minimum essential medium (MEM; Invitrogen). A fat tissue and a muscle tissue surrounding a meibomian gland tissue were removed under a stereomicroscope, and this was transferred to MEM containing 0.475 U/mL of collagenase A (Roche Diagnostics) and 2.4 U/mL of dispase II (Roche Diagnostics), and incubated at 37° C. overnight. After completion of incubation, the enzyme-treated tissue was placed again under the stereomicroscope, eyelashes and an eyelid connective tissue were removed, and a meibomian gland tissue was isolated. To the isolated gland tissue was added 1 mL of trypsin-EDTA (Invitrogen), and this was incubated at 37° C. for 5 minutes. After incubation, to this was added 9 mL of MEM containing 10% FBS to stop the enzymatic reaction, then, suction and exhaustion were repeated five times using a 10 mL pipette and, further, five times using an injection syringe equipped with a 21 G injection needle to disperse tissue-constituting cells. […] The cell suspension which had passed through the filter was recovered in a 50 mL centrifuge tube, and subjected to centrifugation at room temperature and 1,500 rpm for 5 minutes. To a cell layer containing an objective cell obtained by centrifugation was added 80 μL of D-PBS containing 0.5% bovine serum albumin (BSA; Sigma-Aldrich) to sufficiently suspend the cell, to this was added 20 μL of Anti-Fibroblast Microbeads (Militenyi Biotec), and this was allowed to stand at room temperature for 30 minutes. After completion of the reaction with an antibody, to this was added 2 mL of D-PBS containing 0.5% BSA, and this was subjected again to centrifugation at room temperature and 1,500 rpm for 5 minutes. To a cell layer containing an objective cell obtained by centrifugation was added 1 mL of D-PBS containing 0.5% BSA to sufficiently suspend the cell, and this was added dropwise to an LD column (Militenyi Biotec) equilibrated in advance using a column washing solution (D-PBS containing 2 mM EDTA (Dojindo Laboratories) and 0.5% BSA). Then, 2 mL of the column washing solution was added dropwise to the LD column. […] The cell recovered in the centrifuge tube was subjected again to centrifugation at room temperature and 1,500 rpm for 5 minutes to remove the supernatant. To this precipitation was added 1 mL of Defined Keratinocyte-Serum Free Medium (DK-SFM; Invitrogen) to suspend the cell and thereby, a meibomian gland epithelial cell suspension was prepared. The prepared cell was seeded on a culture dish (IWAKI) for cell culturing having a diameter of 3.5 cm which had been coated with a type I collagen solution (Nitta Gelatin Inc.) in advance, and to which 3 mL of DK-SFM had been added. The seeded cell was cultured in an incubator (SANYO) set at 37° C., 5% CO2, 95% air, and 100% humidity, and the culture medium was exchanged with a fresh culture medium every 48 hours until the test day.
Each test substance was dissolved in ethanol (Wako Pure Chemical Industries, Ltd.) to a 200-fold concentration of a final concentration in the culture medium, and this was stored at −80° C. until immediately before use.
As a culture dish for a cell proliferation promotion test, a 96-well culture dish for tissue culture (Corning) was used.

[4] = system: rabbit corneal epithelial cell; assay: Test Example 2: increase in cell number, cultured rabbit corneal epithelial cell, 120 hours (Cell Counting Kit-8); assay type: cell-based; conditions: mEGF 10 ng/mL, no addition group = 100%, average ± standard deviation, N = 5
Method: A male rabbit (Japanese white, weight: about 1.5 kg, […] LABES Co., Ltd.) was used. The experimental animal was used according to the International Guiding Principles for Biomedical Research Involving Animals.
A rabbit corneal epithelial cell was prepared using the same process as that of (Test example 1).
As the test substance, the following compounds were used. • PPARδ agonist: L-165041 (Sigma-Aldrich) and GW-501516 (Alexis)
as §2
Collagen treatment of the culture dish was performed using the same process as that of (Test Example1).
In the test, a rabbit corneal epithelial cell which had been cultured to subconfluent in a culture dish having a diameter of 10 cm was used. After the culture medium was removed, the bottom of the culture dish was washed two times using D-PBS, to this was added 1 mL of trypsin-EDTA, this was incubated at 37° C. for 5 minutes and thereby, the cell was peeled from the bottom of the culture dish. After incubation, 9 mL of MEM containing 10% FBS was added to the culture dish to stop the enzymatic reaction, and this was subjected to centrifugation at room temperature and 1,500 rpm for 5 minutes to obtain a corneal epithelial cell layer. To the resulting cell was added an appropriate amount of RCGM2 to a cell concentration of 1×10^5 cells/mL to suspend the cell. Each 64 μL of this cell suspension was dispensed in each well at the cell number per bottom area (0.32 cm^2) of the collagen-treated 96-well culture dish for tissue culture of […]. […] After 24 hours from cell seeding, the culture medium was discarded, and each 100 μL of the following culture media were freshly dispensed into each well of the culture dish. • [1] Only basal medium (no addition group) • [2] Basal medium+mEGF (final concentration: 10 ng/mL; positive control group) • [3] Basal medium+L-165041 (final concentration: 0.1 μM and 1 μM) • [4] Basal medium+GW-501516 (final concentration: 0.01 μM and 0.1 μM)
The culture supernatant of each well was removed every 48 hours from exchange of the culture medium containing a test substance, and each 100 μL of the freshly prepared culture medium was dispensed into each well.

[5] = system: normal human corneal epithelial cell; assay: Test Example 5: increase in cell number, normal human corneal epithelial cell, 24 hours (Cell Counting Kit-8); assay type: cell-based; conditions: mEGF 1 ng/mL, no addition group = 100%, average ± standard deviation, N = 3 to 4
Method: as §1
As the test substance, the following compounds were used. PPARδ agonist: L-165041 (Sigma-Aldrich), GW-501516 (Alexis)
In addition, as a positive control for confirming the cell proliferation promoting effect, a medium in which a mouse-derived epithelial growth factor (mEGF) contained in an HCGS proliferation additive set (KURABO) was added to a basal medium (basal medium+1 ng/mL mEGF) was used.
This cell suspension was seeded on a fibronectin-coated multiwell plate (24 well, BECTON DICKINSON) so that the cell number became 2×10^4 cells/500 μL/well (since the bottom area is 2 cm^2, the number is 1×10^4 cells/cm^2).
Further, 24 hours thereafter, the culture medium was exchanged with each 400 μL of the following culture media. • [1] Only basal medium (no addition group) • [2] Basal medium+mEGF (final concentration: 1 ng/mL; positive control group) • [3] Basal medium+L-165041 (final concentration: 0.01 μM and 0.1 μM) • [4] Basal medium+GW-501516 (final concentration: 0.001 μM and 0.01 μM)

Cc1cc(SCc2sc(-c3ccc(C(F)(F)F)c(F)c3)nc2C)ccc1OCC(=O)O [GW-0742, (4-(((2-(3-fluoro-4-(trifluoromethyl)phenyl)-4-methyl-5-thiazolyl)methyl)thio)-2-methylphenoxy)acetic acid]
Cell proliferation (%) [1]: 124.1 ± 13.5%

Cc1cccc(Nc2cc(Cl)nc(SCC(=O)O)n2)c1C [WY-14643, ((4-chloro-6-((2,3-dimethylphenyl)amino)-2-pyrimidinyl)thio)acetic acid]
Cell proliferation (%) ([2]; 10^−6 M): 155.5 ± 9.4%
Cell proliferation (%) ([2]; 10^−7 M): 148.9 ± 15.0%

CC(C)OC(=O)C(C)(C)Oc1ccc(C(=O)c2ccc(Cl)cc2)cc1 [fenofibrate, 1-methylethyl 2-(4-(4-chlorobenzoyl)phenoxy)-2-methylpropionate]
Cell proliferation (%) ([3]; 10^−5 M): 127.8 ± 5.2%
Cell proliferation (%) ([3]; 10^−6 M): 114.5 ± 4.5%
cell proliferation compared to the no addition group (in words) ([3]; p<0.01 where significant): significantly higher than in the no addition group
Cell proliferation (%) ([2]; 10^−5 M): 147.0 ± 3.2%
Cell proliferation (%) ([2]; 10^−6 M): 147.3 ± 11.8%

Cc1c(C)c2c(c(C)c1O)CCC(C)(COc1ccc(CC3SC(=O)NC3=O)cc1)O2 (stereo not shown) [troglitazone]
Cell proliferation (%) ([3]; 10^−6 M): 99.9 ± 1.9%
Cell proliferation (%) ([3]; 10^−7 M): 101.6 ± 4.0%

mEGF: mouse-derived epithelial growth factor, positive control for cell proliferation (NSYPGCPSSYDGYCLNGGVCMHIESLDSYTCNCVIGYSGDRCQTRDLRWWELR; not fully specified; Epidermal growth factor; UniProt P01132 977-1029, looked up)
Cell proliferation (%) [4]: 222.1 ± 50.9%
Cell proliferation (%) [5]: 112.1 ± 1.5%
Cell proliferation (%) ([2]; mEGF 10 ng/mL): 144.1 ± 23.1%
